Laboratory results reported in patent publication US12297222B2, “CD206 targeted drug delivery vehicles carrying novel bisphosphonate drug payloads via a degradable linker” (Navidea Biopharmaceuticals, Inc., priority 2022, dated 2025).

Key:
human macrophages [1] = assay: Human macrophage cell culture assay: viability (DAPI-) by flow cytometry; format: cell-based; conditions: 24 hours treatment, then three days in fresh medium; any tested concentration
Procedure: GM-CSF induces the macrophages to adopt an activated phenotype that is intermediate between the extremes of M1 or M2. […] The macrophage cell cultures were incubated with the supplemented complete medium for 24 hours after which it was removed and replaced with fresh complete medium. The macrophage cultures were then incubated for an additional three days. The three-day post treatment incubation was performed to permit assessment of durable changes in macrophage phenotypes. […] For each donor's macrophages, all experiments were run in triplicate.

human macrophages [2] = assay: Human macrophage cell culture assay: surface marker expression (MFI) by flow cytometry; format: cell-based
Procedure: GM-CSF induces the macrophages to adopt an activated phenotype that is intermediate between the extremes of M1 or M2. […] The macrophage cell cultures were incubated with the supplemented complete medium for 24 hours after which it was removed and replaced with fresh complete medium. The macrophage cultures were then incubated for an additional three days. The three-day post treatment incubation was performed to permit assessment of durable changes in macrophage phenotypes.
For each donor's macrophages, all experiments were run in triplicate.

| Compound | cell viability (human macrophages [1]) | expression levels of the evaluated surface markers (overall) (human macrophages [2]; FIG. 5, 80 μg of MAD-BIS-1 or equal molar free BIS-1, fold change in MFI vs saline) | changes in macrophage phenotype observed with MAD-BIS-1 (human macrophages [2]; free BIS-1 at any dose) | expression level of the evaluated surface markers (overall) (human macrophages [2]; FIG. 8, free BIS-2) |
| --- | --- | --- | --- | --- |
| CC(=O)c1sc(NCC(P(=O)(O)O)P(=O)(O)O)nc1C [BIS-1, 2-(4-methyl-5-acetylthiazole-2-yl-amino)ethylidene 1,1-bisphosphonic acid] | neither MAD-BIS-1 nor free BIS-1 decreased cell viability | very little effect | could not be replicated | – |
| CC(=O)c1cn(CC(C)(P(=O)(O)O)P(=O)(O)O)cn1 [BIS-2, 2-(4-acetylimidazole)ethylidene-1-methyl-1,1-bisphosphonic acid] | – | – | – | did not alter |
